Results as given in PMC6044831 (ACS Omega, 2018).

Test: Storage stability of [^125I] 5 in the refrigerator
Assay type: physicochemical
Conditions: 4 °C, storage time over which compound found stable

- stable in the refrigerator (no hydrolysis): more than 6 months
SMILES: O=CCCCNC(=O)c1ccc([125I])cc1 [[^125I] 5]
